≈ marks a conversion by molar mass, not a printed value. A value given as a limit tells only on which side of the number the result lay.

Here are results for 25 compounds from ChEMBL document CHEMBL1129814, “Synthesis of thiophenes and thieno[3,2-c]pyran-4-ones as antileishmanial and antifungal agents” (1997).

Experiment [1] relates to Candida albicans. Kind of experiment: Antifungal activity against Candida albicans (SKF). Format: functional.
For experiment [2], the system named is Aspergillus fumigatus. The experiment is described as follows: Antifungal activity against Aspergillus fumigatus (AF-27). The experiment is classed as functional.
Experiment [3] has as its system Sporothrix schenckii. The experiment is described as follows: In vitro for antifungal activity against Sporothrix schenck ii (SS-1). The experiment is classed as functional.
For experiment [4], the system named is Trichophyton benhamiae. Kind of experiment: In vitro for antifungal activity against Trichophyton mentagrophytes (A-280). The experiment is classed as functional, Arthroderma benhamiae.
Experiment [5] has as its system Cryptococcus neoformans. The experiment is described as follows: Antifungal activity against Cryptococcus neoformans (CN-17). Format: functional.
Experiment [6] has as its system Leishmania donovani. The experiment is described as follows: An vitro anti-leishmanial activity against Leishmania donovani promastigotes (25 uM). Format: functional.

For the compound `CCOC(=O)c1sc(SC)cc1-c1ccc(F)cc1`, the MIC in experiment [1], in experiment [2], in experiment [3], in experiment [4] and in experiment [5] was over 100 µg/mL in each case. In experiment [6], the Growth inhibition is recorded as 95%.
On to `CSc1cc(-c2ccc(F)cc2)c(C(=O)O)s1`, for which the MIC in experiment [1] was over 100 µg/mL; in experiment [2], over 100 µg/mL; in experiment [3] it was over 100 µg/mL; in experiment [4] it was 50 µg/mL (≈ 186 µM); in experiment [5], over 100 µg/mL. In addition, the Growth inhibition in experiment [6] was found to be 40%.
As to `CSc1cc(-c2ccc(C)cc2)c(C(=O)O)s1`, the MIC in experiment [1], in experiment [2], in experiment [3], in experiment [4] and in experiment [5] was over 100 µg/mL each time. In addition, the Growth inhibition in experiment [6] is given as 10%.
On to `CSc1cc(-c2ccc(Br)cc2)c(C(=O)O)s1`, for which the MIC in experiment [1] is over 100 µg/mL; in experiment [2], over 100 µg/mL; in experiment [3], over 100 µg/mL; in experiment [4], 50 µg/mL (≈ 152 µM); in experiment [5] it was over 100 µg/mL. Besides, the Growth inhibition in experiment [6] is on record as 100%.
Take `CCOC(=O)c1sc2cc(-c3cccnc3)oc(=O)c2c1N`: the MIC in experiment [1], in experiment [2], in experiment [3], in experiment [4] and in experiment [5] was over 100 µg/mL each time. The compound further showed a Growth inhibition in experiment [6] of 15%.
Take `CCOC(=O)c1sc2cc(-c3cc(F)c(Cl)cc3Cl)oc(=O)c2c1N`: the MIC in experiment [1], in experiment [2], in experiment [3], in experiment [4] and in experiment [5] was over 100 µg/mL throughout. This compound yielded a Growth inhibition in experiment [6] of 70%.
Take `CCOC(=O)c1sc2cc(-c3ccc(F)cc3)oc(=O)c2c1N`: the MIC in experiment [1], in experiment [2], in experiment [3], in experiment [4] and in experiment [5] was over 100 µg/mL in each case. In experiment [6], the Growth inhibition is on record as 30%.
Consider `N=C(N)c1ccc(OCCCCCOc2ccc(C(=N)N)cc2)cc1` [PENTAMIDINE], for which the Growth inhibition in experiment [6] turned out to be 100%.
Turning to `CCOC(=O)c1sc(SC)c(C#N)c1N`, the MIC in experiment [1], in experiment [2], in experiment [3], in experiment [4] and in experiment [5] was over 100 µg/mL throughout. The same compound returned a Growth inhibition in experiment [6] of 25%.
For the compound `CCOC(=O)c1sc(SC)cc1-c1cccnc1`, the MIC in experiment [1] was found to be 25 µg/mL (≈ 89.5 µM); in experiment [2] it was 50 µg/mL (≈ 179 µM); in experiment [3], 25 µg/mL (≈ 89.5 µM); in experiment [4], 25 µg/mL (≈ 89.5 µM); in experiment [5], 50 µg/mL (≈ 179 µM). In addition, the Growth inhibition in experiment [6] turned out to be 25%.
Regarding `CCOC(=O)c1sc(SC)cc1-c1ccc(Cl)cc1`, the MIC in experiment [1], in experiment [2], in experiment [3], in experiment [4] and in experiment [5] was over 100 µg/mL each time. Further, the Growth inhibition in experiment [6] was determined as 55%.
On to `CCOC(=O)c1sc(SC)cc1-c1ccccc1`, for which the minimal inhibitory concentration (MIC) in experiment [1], in experiment [2], in experiment [3], in experiment [4] and in experiment [5] was over 100 µg/mL throughout. The same compound returned a Growth inhibition in experiment [6] of 30%.
With `CC(=O)N1CCN(c2ccc(OC[C@H]3CO[C@](Cn4ccnc4)(c4ccc(Cl)cc4Cl)O3)cc2)CC1` [KETOCONAZOLE], the MIC came out at 0.1 µg/mL (≈ 0.188 µM) in experiment [1]; 0.7 µg/mL (≈ 1.32 µM) in experiment [2]; 0.1 µg/mL (≈ 0.188 µM) in experiment [3]; 25 µg/mL (≈ 47 µM) in experiment [4]; 0.3 µg/mL (≈ 0.565 µM) in experiment [5].
For the compound `CCOC(=O)c1sc(SC)c(C(=O)OC)c1O`, the MIC in experiment [1] turned out to be 50 µg/mL (≈ 181 µM); in experiment [2], 25 µg/mL (≈ 90.5 µM); in experiment [3], 12.5 µg/mL (≈ 45.2 µM); in experiment [4], 6.25 µg/mL (≈ 22.6 µM); in experiment [5] it was 12.5 µg/mL (≈ 45.2 µM). Moreover, the Growth inhibition in experiment [6] is 95%.
As for `CCOC(=O)c1sc(SC)c(C#N)c1O`, the MIC was over 100 µg/mL in experiment [1]; over 100 µg/mL in experiment [2]; over 100 µg/mL in experiment [3]; 50 µg/mL (≈ 206 µM) in experiment [4]; over 100 µg/mL in experiment [5]. In experiment [6], this compound yielded a Growth inhibition of 60%.
`CSc1cc(-c2ccc(Cl)cc2)c(C(=O)O)s1`: the MIC in experiment [1], in experiment [2], in experiment [3], in experiment [4] and in experiment [5] was over 100 µg/mL throughout. The Growth inhibition in experiment [6] turned out to be 30%.
For `CCOC(=O)c1sc2cc(-c3ccc(Br)cc3)oc(=O)c2c1N`, the MIC in experiment [1], in experiment [2], in experiment [3], in experiment [4] and in experiment [5] was over 100 µg/mL throughout. This compound returned a Growth inhibition in experiment [6] of 8%.
Take `CCOC(=O)c1sc2cc(-c3ccc(OC)cc3)oc(=O)c2c1N`: the MIC in experiment [1], in experiment [2], in experiment [3], in experiment [4] and in experiment [5] was over 100 µg/mL throughout. Besides, the Growth inhibition in experiment [6] is given as 10%.
Turning to `CSc1cc(-c2cccnc2)c(C(=O)O)s1`, the MIC in experiment [1], in experiment [2], in experiment [3], in experiment [4] and in experiment [5] was over 100 µg/mL throughout. The same compound came in with a Growth inhibition in experiment [6] of 25%.
As for `CCOC(=O)c1sc(SC)cc1-c1ccc(Br)cc1`, the MIC in experiment [1], in experiment [2], in experiment [3], in experiment [4] and in experiment [5] was over 100 µg/mL throughout. Further, in experiment [6], the Growth inhibition was 20%.
Regarding `CCOC(=O)c1sc(SC)cc1-c1ccc(C)cc1`, the minimal inhibitory concentration (MIC) in experiment [1], in experiment [2], in experiment [3], in experiment [4] and in experiment [5] was over 100 µg/mL in each case. Besides, the Growth inhibition in experiment [6] is reported as 100%.
With `CCOC(=O)c1sc2cc(-c3ccc([N+](=O)[O-])cc3)oc(=O)c2c1N`, the MIC in experiment [1], in experiment [2], in experiment [3], in experiment [4] and in experiment [5] was over 100 µg/mL in each case. This compound registered a Growth inhibition in experiment [6] of 20%.
As to `CCOC(=O)c1sc2cc(-c3cccc([N+](=O)[O-])c3)oc(=O)c2c1N`, the MIC in experiment [1], in experiment [2], in experiment [3], in experiment [4] and in experiment [5] was over 100 µg/mL in each case. In experiment [6], the Growth inhibition is listed as 28%.
Regarding `CCOC(=O)c1sc2cc(-c3ccc(Cl)cc3)oc(=O)c2c1N`, the MIC in experiment [1], in experiment [2], in experiment [3], in experiment [4] and in experiment [5] was over 100 µg/mL in each case. Moreover, the Growth inhibition in experiment [6] worked out at 24%.
With `CCOC(=O)c1sc(SC)c(C(=O)OCC)c1O`, the MIC in experiment [1], in experiment [2], in experiment [3], in experiment [4] and in experiment [5] was over 100 µg/mL in each case. In experiment [6], the Growth inhibition is reported as 63%.

A word on the MIC: it is the smallest concentration in the dilution series that meets the test's criterion for growth inhibition. Low values mean inhibition by little substance, high ones a need for much substance.
